Data: patent US20230150970A1, “AMINOPYRIMIDINE DERIVATIVES AND THEIR USE AS ARYL HYDROCARBON RECEPTOR MODULATORS” (DONG-A ST CO., LTD., priority 2020, published 2023)
Where two headings read alike, the source gives them in different places.

Legend:
AhR [1] = biological target: T1, AhR (Homo sapiens, UniProt P35869)
T1 sequence (P35869 11-848): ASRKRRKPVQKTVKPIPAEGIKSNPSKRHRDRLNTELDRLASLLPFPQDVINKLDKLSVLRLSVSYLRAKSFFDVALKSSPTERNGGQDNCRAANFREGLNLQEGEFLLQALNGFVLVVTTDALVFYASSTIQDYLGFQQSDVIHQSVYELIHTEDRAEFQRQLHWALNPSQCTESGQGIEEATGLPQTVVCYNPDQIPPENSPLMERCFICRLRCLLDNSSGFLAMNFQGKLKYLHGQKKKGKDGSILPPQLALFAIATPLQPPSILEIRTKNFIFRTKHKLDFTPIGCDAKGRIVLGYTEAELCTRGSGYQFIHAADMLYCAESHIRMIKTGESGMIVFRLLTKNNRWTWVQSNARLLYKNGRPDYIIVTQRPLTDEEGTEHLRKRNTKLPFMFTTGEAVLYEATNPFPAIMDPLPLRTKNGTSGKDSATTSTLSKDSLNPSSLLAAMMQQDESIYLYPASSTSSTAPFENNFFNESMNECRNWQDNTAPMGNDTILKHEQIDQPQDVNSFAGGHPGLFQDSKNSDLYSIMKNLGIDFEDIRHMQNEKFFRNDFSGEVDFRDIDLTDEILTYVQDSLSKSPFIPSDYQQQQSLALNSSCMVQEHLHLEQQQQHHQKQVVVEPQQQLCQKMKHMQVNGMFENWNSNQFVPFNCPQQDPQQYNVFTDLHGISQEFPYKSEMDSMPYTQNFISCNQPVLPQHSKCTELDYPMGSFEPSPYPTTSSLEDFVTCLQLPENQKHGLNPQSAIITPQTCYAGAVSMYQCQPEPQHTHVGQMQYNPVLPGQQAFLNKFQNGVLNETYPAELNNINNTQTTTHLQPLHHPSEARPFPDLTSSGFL

AhR [2] = biological target: T2, AhR (Mus musculus, UniProt P30561); assay: In Vitro Assay 2: XRE-luciferase reporter assay, antagonism in mouse cell line (Hepa1c1c7); type: cell-based; settings: 6 hours, read-out: Assay 2: AhR-Luc Mouse Antagonism (IC50)
T2 sequence (P30561 1-848): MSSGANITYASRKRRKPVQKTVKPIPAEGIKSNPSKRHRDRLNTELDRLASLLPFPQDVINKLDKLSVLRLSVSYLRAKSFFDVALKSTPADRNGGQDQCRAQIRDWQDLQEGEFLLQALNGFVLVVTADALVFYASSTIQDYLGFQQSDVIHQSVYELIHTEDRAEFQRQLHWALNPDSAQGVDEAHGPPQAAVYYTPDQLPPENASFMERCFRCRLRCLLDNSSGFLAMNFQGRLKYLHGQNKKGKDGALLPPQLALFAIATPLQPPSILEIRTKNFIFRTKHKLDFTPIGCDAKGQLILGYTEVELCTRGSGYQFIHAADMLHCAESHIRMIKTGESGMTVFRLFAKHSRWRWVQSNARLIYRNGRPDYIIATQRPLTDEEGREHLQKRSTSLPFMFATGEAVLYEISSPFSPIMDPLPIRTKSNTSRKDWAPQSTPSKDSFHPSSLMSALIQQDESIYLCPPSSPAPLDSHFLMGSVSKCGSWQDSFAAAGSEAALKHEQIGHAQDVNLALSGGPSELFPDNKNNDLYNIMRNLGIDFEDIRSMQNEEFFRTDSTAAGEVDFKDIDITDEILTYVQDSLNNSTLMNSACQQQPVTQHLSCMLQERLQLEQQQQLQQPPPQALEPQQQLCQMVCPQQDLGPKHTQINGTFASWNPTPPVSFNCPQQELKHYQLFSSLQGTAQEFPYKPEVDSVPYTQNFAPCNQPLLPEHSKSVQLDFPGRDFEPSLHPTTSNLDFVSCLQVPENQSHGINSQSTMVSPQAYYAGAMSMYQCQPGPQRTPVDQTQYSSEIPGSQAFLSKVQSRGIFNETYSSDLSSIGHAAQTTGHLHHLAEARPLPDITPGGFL
Description: In Vitro Assay 2: Antagonism in Mouse Cell Line
Hepa1c1c7 (murine liver cancer cell line) cells co-transfected with XRE-Luc and Nano-Luc plasmids were plated in complete medium and incubated overnight at 37° C. in a CO2 incubator. Following incubation, cells were treated with AhR activating ligands such as kynurenic acid, kynurenine (#) with or without test compounds for 6 hours.

AhR [3] = biological target: T1, AhR; assay: In Vitro Assay 3: XRE-luciferase reporter assay, agonism in human cell line (HepG2); type: cell-based; design: endogenous in cells; host or cells: HepG2; settings: HepG2, tryptophan free medium, 6 hours, no agonist, read-out: Assay 3: AhR-Luc Human Agonism (EC50)
Description: In Vitro Assay 3: Agonism in Human Cell Line
HepG2 (human hepatoma cell line) cells co-transfected with XRE-Luc and Nano-Luc plasmids were plated in tryptophan free medium containing 1% of dialyzed fetal bovine serum and incubated overnight at 37° C. in a CO2 incubator. After 24 hours, cells were treated for 6 hours with test compounds or not. […] As a positive control, cells were incubated with TCDD.

AhR [4] = biological target: T1, AhR; assay: In Vitro Assay 1: XRE-luciferase reporter assay, antagonism in human cell line (HepG2); settings: Assay 1: AhR-Luc Human Antagonism (IC50, nM), 6 hours
AhR [5] = biological target: T1, AhR; assay: In Vitro Assay 4: endogenous AhR activity assay (CYP1A1 and CYP1B1 mRNA, qRT-PCR, HepG2 cells)
Description: In Vitro Assay 4: Endogenous AhR Activity Assay
HepG2 cells were seeded in 12-well plate (3×10^5 cells/well). A day after seeding, the cells were treated with TCDD (10 nM) alone or with compounds (123 nM) for 4 hours. Total RNA was extracted using Trizol (Thermo Fisher Scientific). cDNA synthesis and quantitative RT-PCR (qRT-PCR) assays were performed using PrimeScript™ RT Master Mix (TAKARA) and TB Green™ Premix Ex Taq™ II (TAKARA) in accordance with manufacturer's instruction. For the measurement of endogenous AhR activity, relative mRNA levels of CYP1A1 and CYP1B1 were quantitated relative to β-actin mRNA by the comparative Ct (ΔΔCt) method. The percent inhibitions were calculated according to:

[6] = values marked #: AhR activating ligand kynurenine
[7] = values marked *: kynurenine 50 μM
[8] = HepG2, read-out: CYP1A1 (% Inhibition)
[9] = HepG2, read-out: CYP1B1 (% Inhibition)
[10] = unmarked values: AhR activating ligand kynurenic acid
[11] = unmarked values: kynurenine 200 μM

Compound	IC50 (AhR [1]) [nM]	IC50 (AhR [2]; [6]) [nM]	EC50 (AhR [3]; number of the cell) [nM]	IC50 (AhR [4]; [7]) [nM]	inhibition at 0.123 µM (AhR [5]; [8]) [%]	inhibition at 0.123 µM (AhR [5]; [9]) [%]	EC50 (AhR [3]; class in brackets of the cell) [nM]	IC50 (AhR [2]; [10]) [nM]	IC50 (AhR [4]; [11]) [nM]
4-(4-chlorophenyl)-2-(pyridin-3-yl)-6-(4-(pyrimidin-2-yl)piperazin-1-yl)pyrimidine [Example 90]	10 to 100	–	–	–	–	–	–	–	–
CC[C@H](CO)Nc1cc(-c2ccc(Cl)cc2)nc(-c2cccnc2)n1 [Example 1, (R)-2-((6-(4-chlorophenyl)-2-(pyridin-3-yl)pyrimidin-4-yl)amino)butan-1-ol]	–	100 to 1000	12.6	10 to 100	60	92	–	–	–
O=C1CN(c2cc(-c3ccc(Cl)cc3)nc(-c3cccnc3)n2)CCN1 [Example 94, 4-(6-(4-chlorophenyl)-2-(pyridin-3-yl)pyrimidin-4-yl)piperazin-2-one]	–	100 to 1000	> 30000	10 to 100	63.1	92.1	> 10000	–	–
CN1CCN(c2cc(-c3ccc(Cl)cc3)nc(-c3cccnc3)n2)CC1 [Example 105, 4-(4-chlorophenyl)-6-(4-methylpiperazin-1-yl)-2-(pyridin-3-yl)pyrimidine]	–	100 to 1000	> 30000	< 10	59.2	88.4	> 10000	–	–
O[C@H]1CCN(c2cc(-c3ccc(Cl)cc3)nc(-c3cccnc3)n2)C1 [Example 137, (S)-1-(6-(4-chlorophenyl)-2-(pyridin-3-yl)pyrimidin-4-yl)pyrrolidin-3-ol]	–	–	> 30000	–	91.6	97.7	> 10000	< 10	< 10
OCC1CCN(c2cc(-c3ccc(C(F)(F)F)cc3)nc(-c3cccnc3)n2)CC1 [Example 226, (1-(2-(pyridin-3-yl)-6-(4-(trifluoromethyl)phenyl)pyrimidin-4-yl)piperidin-4-yl)methanol]	–	10 to 100	> 30000	–	108	101	> 10000	–	< 10
O[C@@H]1CN(c2cc(-c3ccc(Cl)cc3)nc(-c3cccnc3)n2)C[C@@H]1F [Example 235, (3R,4S)-1-(6-(4-chlorophenyl)-2-(pyridin-3-yl)pyrimidin-4-yl)-4-fluoropyrrolidin-3-ol]	–	10 to 100	3560	< 10	106	101	–	–	–
O=S(=O)(CCO)N1CCN(c2cc(-c3ccc(Cl)cc3)nc(-c3cccnc3)n2)CC1 [Example 239, 2-((4-(6-(4-chlorophenyl)-2-(pyridin-3-yl)pyrimidin-4-yl)piperazin-1-yl)sulfonyl)ethan-1-ol]	–	–	> 30000	–	108	101	> 10000	< 10	< 10
OCC1CCN(c2cc(-c3ccc(N4CCOCC4)cc3)nc(-c3cccnc3)n2)CC1 [Example 268, (1-(6-(4-morpholinophenyl)-2-(pyridin-3-yl)pyrimidin-4-yl)piperidin-4-yl)methanol]	–	< 10	> 30000	–	102	–	> 10000	–	< 10
O[C@H]1CCN(c2cc(-c3ccc(Cl)cc3)nc(-c3cncc(F)c3)n2)C1 [Example 323, (S)-1-(6-(4-chlorophenyl)-2-(5-fluoropyridin-3-yl)pyrimidin-4-yl)pyrrolidin-3-ol]	–	10 to 100	> 30000	–	108	99.8	> 10000	–	< 10
O[C@H]1CCN(c2cc(-c3ccc(C(F)(F)F)cc3)nc(-c3cncc(F)c3)n2)C1 [Example 327, (S)-1-(2-(5-fluoropyridin-3-yl)-6-(4-(trifluoromethyl)phenyl)pyrimidin-4-yl)pyrrolidin-3-ol]	–	10 to 100	1720	–	106	101	–	–	< 10
O=C(CCO)N1CCN(c2cc(-c3ccc(Cl)cc3)nc(-c3cccnc3)n2)CC1 [Example 352, 1-(4-(6-(4-chlorophenyl)-2-(pyridin-3-yl)pyrimidin-4-yl)piperazin-1-yl)-3-hydroxypropan-1-one]	–	10 to 100	> 30000	–	87.2	–	> 10000	–	< 10
